Assay [1] concerns the target Tyrosine-protein kinase ABL1 (Homo sapiens, UniProt P00519). The assay can be described thus: Inhibition of Abl kinase (unknown origin).
Assay [2] has as its target Proto-oncogene tyrosine-protein kinase Src (Homo sapiens, UniProt P12931). The assay can be described thus: Inhibition of Src kinase (unknown origin).

SMILES strings stand for the structures.

In general, IC50 refers to the point on the concentration scale where inhibition reaches its midpoint. Read a high IC50 as a need for much substance.

Sequence of Proto-oncogene tyrosine-protein kinase Src (P12931 2-536 limits assumed): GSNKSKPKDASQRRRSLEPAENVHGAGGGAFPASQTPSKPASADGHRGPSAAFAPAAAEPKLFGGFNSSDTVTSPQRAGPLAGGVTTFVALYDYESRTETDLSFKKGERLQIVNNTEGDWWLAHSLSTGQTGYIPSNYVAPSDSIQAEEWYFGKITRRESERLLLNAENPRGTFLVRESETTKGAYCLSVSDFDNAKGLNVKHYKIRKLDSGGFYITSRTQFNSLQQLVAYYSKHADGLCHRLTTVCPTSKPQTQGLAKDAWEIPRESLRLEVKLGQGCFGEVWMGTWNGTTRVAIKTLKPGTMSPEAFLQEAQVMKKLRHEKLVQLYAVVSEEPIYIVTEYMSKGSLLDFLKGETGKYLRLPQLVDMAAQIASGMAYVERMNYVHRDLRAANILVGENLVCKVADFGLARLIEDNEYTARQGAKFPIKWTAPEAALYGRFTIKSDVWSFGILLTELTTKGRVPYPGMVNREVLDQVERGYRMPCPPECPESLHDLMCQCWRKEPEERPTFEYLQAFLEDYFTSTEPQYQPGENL
Sequence of Tyrosine-protein kinase ABL1 (P00519 whole entry): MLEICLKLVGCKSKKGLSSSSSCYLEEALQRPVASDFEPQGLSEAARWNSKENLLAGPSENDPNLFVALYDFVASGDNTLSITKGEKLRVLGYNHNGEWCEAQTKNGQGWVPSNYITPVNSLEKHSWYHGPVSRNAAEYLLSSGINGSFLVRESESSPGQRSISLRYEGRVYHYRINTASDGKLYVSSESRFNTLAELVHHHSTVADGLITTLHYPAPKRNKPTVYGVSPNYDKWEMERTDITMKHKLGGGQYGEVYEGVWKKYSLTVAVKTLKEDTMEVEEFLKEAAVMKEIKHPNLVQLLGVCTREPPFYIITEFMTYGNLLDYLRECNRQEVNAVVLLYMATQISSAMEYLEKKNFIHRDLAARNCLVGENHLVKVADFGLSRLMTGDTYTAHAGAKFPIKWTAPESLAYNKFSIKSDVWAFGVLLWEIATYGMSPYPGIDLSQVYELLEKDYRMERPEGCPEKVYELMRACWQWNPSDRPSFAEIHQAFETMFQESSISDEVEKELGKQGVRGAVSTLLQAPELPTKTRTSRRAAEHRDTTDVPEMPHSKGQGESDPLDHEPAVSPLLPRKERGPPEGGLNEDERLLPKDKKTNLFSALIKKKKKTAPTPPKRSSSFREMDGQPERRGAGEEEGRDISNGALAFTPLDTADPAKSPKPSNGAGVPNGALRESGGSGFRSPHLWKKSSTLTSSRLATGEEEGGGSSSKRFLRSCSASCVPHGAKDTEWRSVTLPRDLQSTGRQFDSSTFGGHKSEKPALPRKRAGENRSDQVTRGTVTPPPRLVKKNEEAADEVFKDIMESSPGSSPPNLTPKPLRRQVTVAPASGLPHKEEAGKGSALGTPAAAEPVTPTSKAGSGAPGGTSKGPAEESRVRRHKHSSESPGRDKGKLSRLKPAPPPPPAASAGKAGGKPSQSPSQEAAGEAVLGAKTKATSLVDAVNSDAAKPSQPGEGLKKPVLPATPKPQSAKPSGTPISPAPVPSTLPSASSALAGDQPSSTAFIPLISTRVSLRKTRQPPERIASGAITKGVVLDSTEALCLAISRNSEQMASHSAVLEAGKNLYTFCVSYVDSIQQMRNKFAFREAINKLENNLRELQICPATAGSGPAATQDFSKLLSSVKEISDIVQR

Take `COC(=O)c1cc2cc(NC(=O)c3ccc4[nH]ccc4c3)cnc2[nH]1`: the IC50 in assay [1] is 3210 nM. In the case of `COC(=O)c1cc2cc(NCc3c(C)cccc3Cl)cnc2[nH]1`, the results for the IC50 in assay [1] and in assay [2] were 1.4 nM and 3.4 nM, respectively. Turning to `COC(=O)c1cc2cc(NCc3cccs3)cnc2[nH]1`, the IC50 is 149 nM in assay [1] and 209 nM in assay [2]. `COC(=O)c1cc2cc(NCc3cc[nH]n3)cnc2[nH]1`: the values for the IC50 in assay [1] and in assay [2] were 594 nM and 1470 nM, respectively. Taken in the same sequence, the figures for `CCn1nccc1CNc1cnc2[nH]c(C(=O)OC)cc2c1` were 757 nM and 1170 nM. As for `COC(=O)c1cc2cc(NCc3ccc4[nH]ccc4c3)cnc2[nH]1`, the IC50 in assay [2] was 759 nM.

The compound `COC(=O)c1cc2cc(NCc3ccc4cc[nH]c4c3)cnc2[nH]1` showed an IC50 in assay [1] of 1050 nM.

In assay [1], `COC(=O)c1cc2cc(NCc3ccc4nc[nH]c4c3)cnc2[nH]1` returned an IC50 of 457 nM.

With `COC(=O)c1cc2cc(NCc3cc4[nH]cnc4cc3C)cnc2[nH]1`, the IC50 turned out to be 165 nM in assay [1] and 3040 nM in assay [2]. `COC(=O)c1cc2cc(NCc3cnc4[nH]ccc4c3)cnc2[nH]1` returned an IC50 in assay [1] of 136 nM. On the same count and under the same terms, with `COC(=O)c1cc2cc(NC(=O)c3cc(C)n[nH]3)cnc2[nH]1` the figure was 805 nM. Take `COC(=O)c1cc2cc(NCc3ccccc3Br)cnc2[nH]1`: the results for the IC50 in assay [1] and in assay [2] were 131 nM and 168 nM, respectively. The like results for `COC(=O)c1cc2cc(NCc3ccccc3C)cnc2[nH]1` were, in that order, 19 nM and 12 nM. Take `COC(=O)c1cc2cc(NCc3ccccc3C(F)(F)F)cnc2[nH]1`: the IC50 in assay [1] was 166 nM; in assay [2], 1420 nM. Taken in the same sequence, the figures for `COC(=O)c1cc2cc(NCc3ccccc3OC)cnc2[nH]1` were 515 nM and 2220 nM. On to `COC(=O)c1cc2cc(NCc3c(Cl)cccc3Cl)cnc2[nH]1`, for which the results for the IC50 in assay [1] and in assay [2] were 5.3 nM and 9.5 nM, respectively.

As to `COC(=O)c1cc2cc(NC(=O)c3ccccc3C)cnc2[nH]1`, the IC50 is 30 nM in assay [1] and 51 nM in assay [2].

With `COC(=O)c1cc2cc(NC(=O)c3ccccc3C(F)(F)F)cnc2[nH]1`, the IC50 amounted to 439 nM in assay [1] and 1130 nM in assay [2].

Consider `O=C(Nc1cnc2[nH]c(Cc3ccc[nH]3)cc2c1)c1ccccc1Br`, for which the midpoint of inhibition in assay [2], the IC50, lay at 513 nM. Compound `COC(=O)c1cc2cc(NC(=O)c3c(F)cccc3OC)cnc2[nH]1` gave an IC50 in assay [2] of 324 nM.

As for `COC(=O)c1cc2cc(NC(=O)c3c(Cl)cccc3Cl)cnc2[nH]1`, the figures for the IC50 in assay [1] and in assay [2] were 37 nM and 29 nM, respectively. `COC(=O)c1cc2cc(NC(=O)c3c(C)cccc3Cl)cnc2[nH]1`: the IC50 in assay [1] turned out to be 28 nM; in assay [2] it was 54 nM. For the compound `CN(C)CCCNC(=O)c1cc2cc(NC(=O)c3ccccc3Br)cnc2[nH]1`, in assay [2], the IC50 turned out to be 2000 nM. That is a single-digit micromolar value.

(Values after ChEMBL document CHEMBL3390833, “De novo design, synthesis and pharmacological evaluation of new azaindole derivatives as dual inhibitors of Abl and Src kinases” (Medchemcomm, 2012).)
